Data on one molecule can be found in PMC4728427, “Mechanism of allosteric activation of TMEM16A/ANO1 channels by a commonly used chloride channel blocker” (British Journal of Pharmacology, 2016).

The target in test [1] is human TMEM16A. On the set-up: method as in Bradley et al. (2014). To be noted: +80 mV, ref Bradley et al. (2014); cited from earlier work.
Test [2] addresses T1, Mouse TMEM16A (Mus musculus, UniProt Q8BHY3).
T1 construct: expressed in transfected cells; host or cells: HEK-293T
T1 sequence (Q8BHY3 1-960): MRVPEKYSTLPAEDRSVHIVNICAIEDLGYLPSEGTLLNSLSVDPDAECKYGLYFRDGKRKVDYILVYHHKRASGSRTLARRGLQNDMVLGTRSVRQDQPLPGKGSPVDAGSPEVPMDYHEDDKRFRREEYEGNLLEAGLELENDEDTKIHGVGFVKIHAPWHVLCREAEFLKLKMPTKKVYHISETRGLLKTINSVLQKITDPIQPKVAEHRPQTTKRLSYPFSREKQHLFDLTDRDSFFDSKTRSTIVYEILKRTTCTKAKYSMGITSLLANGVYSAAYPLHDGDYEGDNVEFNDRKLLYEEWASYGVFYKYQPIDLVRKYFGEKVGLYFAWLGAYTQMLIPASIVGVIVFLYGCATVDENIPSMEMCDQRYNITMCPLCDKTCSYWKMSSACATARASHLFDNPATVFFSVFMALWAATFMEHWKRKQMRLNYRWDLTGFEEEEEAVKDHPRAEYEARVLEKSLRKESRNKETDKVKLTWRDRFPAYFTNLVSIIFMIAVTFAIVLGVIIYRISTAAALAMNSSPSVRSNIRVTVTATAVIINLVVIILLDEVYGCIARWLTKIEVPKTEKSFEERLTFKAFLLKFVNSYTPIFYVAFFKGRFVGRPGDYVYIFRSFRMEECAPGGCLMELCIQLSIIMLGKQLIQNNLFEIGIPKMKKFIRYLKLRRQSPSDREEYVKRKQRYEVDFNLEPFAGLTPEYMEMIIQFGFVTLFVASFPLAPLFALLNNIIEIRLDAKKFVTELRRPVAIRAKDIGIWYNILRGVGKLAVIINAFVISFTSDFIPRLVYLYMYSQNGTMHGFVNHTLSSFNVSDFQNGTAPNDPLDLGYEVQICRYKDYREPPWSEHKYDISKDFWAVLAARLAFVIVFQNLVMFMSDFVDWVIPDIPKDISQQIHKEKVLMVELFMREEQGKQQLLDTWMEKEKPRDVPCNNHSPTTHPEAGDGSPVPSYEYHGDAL
The test can be described thus: Steady-state activation curve (conductance versus Vm, Boltzmann fit). It counts as cell-based. On the procedure:
The voltage‐dependence of TMEM16A channels was assessed by constructing conductance (G) versus V m relationships in the presence of various [Ca^2+]i. A 1 s pre‐pulse applied to different V m (from −100 to +180 mV in 40 mV increments) was followed by a 0.5 s tail pulse to −60 mV. These pulses were elicited every 2 s from a holding V m of 0 mV. Tail currents were fitted with a single exponential function and the instantaneous tail current amplitude (I tail) estimated from extrapolation of the fit to the beginning of the tail pulse. G was calculated as G = I tail/(V m − E Cl), and normalized G (G/G max) was plotted against the V m of the pre‐pulse. The G versus V m relationships were fitted with the Boltzmann equation of the following form: (5) G/Gmax=1/1+expzgV0.5−VF/RT,
where z g is the number of gating charges moving through the applied transmembrane electric field during channel activation, and V 0.5 is the voltage at which the G is half‐maximal and depends on the conformational energy required for the channel to open.
To examine the possible effects of A9C on TMEM16A channel [Ca^2+]i‐sensitivity, the conductance versus V m relationships were assessed at various [Ca^2+]i in the absence or presence of various [A9C]ext (Figure 10 and Table 3). In the absence of extracellular A9C, V 0.5 (derived from fit with Equation (5)) shifted progressively to lower values as the [Ca^2+]i was increased from 300 to 1000 nM (Table 3). Extracellular A9C dramatically shifted the steady‐state activation curves to the left (Figure 10 and Table 3) to a similar extent for all [Ca^2+]i tested.

Test [3] has as its system native CaCCs in rabbit pulmonary artery smooth muscle cells. The settings on record: cited from earlier work.
[4] abbreviates: ~300 nM [Ca2+]i, 300 μM [A9C]ext.
Where [5] appears, read: ~300 nM [Ca2+]i, 1000 μM [A9C]ext.
[6] abbreviates: ~600 nM [Ca2+]i, 300 μM [A9C]ext.
Setting [7] is: ~600 nM [Ca2+]i, 1000 μM [A9C]ext.
The mark [8] stands for this setting: ~1000 nM [Ca2+]i, 300 μM [A9C]ext.
The mark [9] stands for this setting: ~1000 nM [Ca2+]i, 1000 μM [A9C]ext.

For `O=C(O)c1c2ccccc2cc2ccccc12` [A9C, Anthracene‐9‐carboxylic acid], the Ki in test [1] is around 60 µM. Also, the “V 0.5 (Boltzmann fit)” value is reported as 124 ± 9 (n = 8) mV in test [2] (setting [4]); 89 ± 7 (n = 14) mV in test [2] (setting [5]); 45 ± 4 (n = 8) mV in test [2] (setting [6]); 18 ± 4 (n = 14) mV in test [2] (setting [7]); −15 ± 8 (n = 5) mV in test [2] (setting [8]); −22 ± 6 (n = 9) mV in test [2] (setting [9]). Further, the “z g (Boltzmann fit)” value is 0.7 ± 0.1 (n = 8) in test [2] (setting [4]); 0.7 ± 0.1 (n = 14) in test [2] (setting [5]); 0.7 ± 0.1 (n = 8) in test [2] (setting [6]); 0.7 ± 0.1 (n = 14) in test [2] (setting [7]); 0.9 ± 0.1 (n = 5) in test [2] (setting [8]); 0.9 ± 0.1 (n = 9) in test [2] (setting [9]). Besides, the “E rev of native CaCC currents” value in test [3] (ref Piper and Greenwood (2003)) is “did not change”. For the same molecule, the “native CaCC tail current increase” value in test [3] (−80 mV, 500 μM A9C, ref Piper and Greenwood, 2003) is reported as ~ 3 fold.

As usually defined, the Ki is a measure of affinity in units of concentration, obtained from inhibition or displacement.
